Measured values as given in patent US20110263507A1 (priority 2007, published 2011).
Where two headings read alike, the source gives them in different places. Where a SMILES comes first, the peptide text is derived from it. [ ]: non-standard residue; d: D form. Ala(indol-4-yl) = N[C@@H](Cc1cccc2[nH]ccc12)C(=O)O; d1Nal = N[C@H](Cc1cccc2ccccc12)C(=O)O; NMeR = CN[C@@H](CCCNC(=N)N)C(=O)O; Tle = CC(C)(C)[C@H](N)C(=O)O

Key:
hNTS2 = molecular target: T1, hNTS2 (Homo sapiens, UniProt O95665); assay: Radioligand competition binding with [3H]NT, membranes of CHO-K1 cells expressing hNTS2
T1 construct: expressed in transfected cells; host or cells: CHO-K1
Method: CHO-K1 cells that had been stably transfected separately with the hNTS1 or hNTS2 genes were cultured in 150 mm (500 cm^2) Petri plates with 35 ml of Dulbecco's modified Eagle's medium containing 100 μM minimal essential medium nonessential amino acids (Life Technologies, Inc.) supplemented with 5% (v/v) FetalClone II bovine serum product (Hyclone Labs, Logan, Utah). CHO cells (subculture 7-15) were harvested at confluence by aspiration of the medium, followed by a wash with ice-cold 50 mM Tris-HCl buffer, pH=7.4, which was discarded, resuspension in 5-15 ml of Tris-HCl, scraping the cells with a plastic spatula into a centrifuge tube, and collection of cells by centrifugation at 300×g for 5 min at 4° C., in a GPR centrifuge (Beckman Instruments, Fullerton, Calif.). The cellular pellet (in Tris-HCl buffer) was stored at −180° C. until the radioligand binding was performed.
For use in binding assays, crude membrane preparations were prepared by centrifugation of the cellular pellet at 35,600×g for 10 min. The supernatant was decanted and discarded, and the cellular pellet was resuspended in 1 ml of Tris-HCl buffer followed by homogenization with a Brinkmann Polytron at setting 5.5 for 15 s. Centrifugation was repeated as above, the supernatant was decanted and discarded, and the cellular pellet was resuspended in 1 ml of Tris-HCl buffer followed by homogenization. Centrifugation was repeated a third time, the supernatant was discarded, and the final cellular pellet was suspended in 0.5-2.5 ml of Tris-HCl buffer. Protein concentration of the membrane preparation was estimated by the method of Lowry et al. using bovine serum albumin as a standard.
Incubation was at 20° C. for 40 min. The assay was routinely terminated by addition of ice-cold 0.9% NaCl (5×1.5 ml), followed by rapid filtration through a GF/B filter strip that had been pretreated with 0.2% or 2% polyethyleneimine. […] Data were analyzed using the LIGAND program.
Curves were generated using the LIGAND program. […] Data are the means of duplicate determinations and are representative results from one of at least three independent experiments.

[1] = Direct injection into the brains of rats; format: in vivo; settings: direct injection into brain, unpublished observations
Text: (See Cusack, B. et al. BRAIN RES 856: 48-54 (2000) and Tyler-McMahon, B. M. et al. EUR J PHARMACOL 390: 107-11 (2000)).

6-keto-prostaglandin F1α = assay: Plasma prostaglandin levels after injection; format: in vivo; settings: mice, 30 min after injection; NT69 2 mg/kg, NT79 20 mg/kg intraperitoneally; compared to saline; surrogate marker for hypotension
Method: Blood samples from 3 mice were pooled for each condition.
Therefore, in preliminary studies, levels of 6-keto-prostaglandin F1α immunoreactivity were measured after injection of saline, NT69, or NT79 into mice (FIG. 8).

[2] = Body temperature lowering in mice; format: in vivo; settings: intraperitoneal; for effect on body temperature: 10 times the dosage of that for NT69, FIG. 5
Text: At time “0” baseline readings were made. […] The thermistor probe was inserted 2 cm into the rectum for the measurement of body temperature.

hNTS1 = molecular target: T2, hNTS1 (Homo sapiens, UniProt P30989); assay: Radioligand competition binding with [3H]NT, membranes of CHO-K1 cells expressing hNTS1; settings: for hNTS1 Selectivity: Table 2, hNTS1 over hNTS2
T2 construct: expressed in transfected cells; host or cells: CHO-K1

[3] = Degradation of peptides in plasma in vitro (stability to plasma peptidases); format: in vitro ADME; settings: peptide incubated with human (FIG. 4) or rat plasma; read-out: half-lives in plasma
Method: All peptides that were stable (half-lives >100 h), such as NT66, NT67, NT69, NT72, and NT73, have either a blocked amino group (N-Methyl-Arg) or a D-amino in the 8 or 9 position (Table 4).

Tail flick test = format: in vivo; settings: rats, 20 mg/kg intraperitoneally, FIG. 6
Method: The tail flick test also measures changes in nociceptive threshold to thermal stimulus. The rats were administered 20 mg/kg of NT79 intraperitoneally. The rat was placed in a restrainer. Water was heated to 52° C. (52-54° C.). The rat's tail was immersed in the heated water. The latency to flick the tail was recorded. A 10 sec cutoff period was used to prevent tissue damage. Antinociception was expressed as a percentage of the Maximal Possible Effect (MPE) % MPE=100×(test latency−baseline latency)/(cutoff time {10 s}−baseline latency). Analgesic compounds will result in higher % MPE.

[4] = Acetic acid-induced writhing test; format: in vivo; settings: rats, 20 mg/kg intraperitoneally, FIG. 7
Method: The writhing test was used to measure changes in the nociceptive threshold to a chemical stimulus. The rats were administered 20 mg/kg of NT79 intraperitoneally. The rats were also injected with 0.5 ml of a 2% (v/v) aqueous solution of acetic acid and placed individually in clear plastic containers for observation.
Behavioral Measure: The number of writhes was counted during a 60 min observation period. A writhe was defined as stretching of the hind limbs accompanied by a contraction of abdominal muscles. Analgesic compounds will result in lower number of writhes.

[5] = Table 2, read-out: hNTS2 Geometric Mean ∀ SEM (equilibrium dissociation constant Kd)
[6] = read-out: hNTS1 Geometric Mean ∀ SEM (equilibrium dissociation constant Kd)

T2 sequence (P30989 whole entry): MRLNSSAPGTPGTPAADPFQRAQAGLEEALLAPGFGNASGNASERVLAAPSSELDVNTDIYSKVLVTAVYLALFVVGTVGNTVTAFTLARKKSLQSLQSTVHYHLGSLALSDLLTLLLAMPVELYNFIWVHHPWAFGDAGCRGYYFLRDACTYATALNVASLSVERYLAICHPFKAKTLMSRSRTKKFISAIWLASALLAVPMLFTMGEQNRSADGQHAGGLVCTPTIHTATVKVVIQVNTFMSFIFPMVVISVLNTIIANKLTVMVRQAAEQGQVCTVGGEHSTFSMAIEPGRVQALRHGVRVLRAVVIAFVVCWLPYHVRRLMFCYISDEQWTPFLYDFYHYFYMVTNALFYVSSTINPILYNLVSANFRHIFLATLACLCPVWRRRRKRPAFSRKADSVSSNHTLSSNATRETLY
T1 sequence (O95665 whole entry): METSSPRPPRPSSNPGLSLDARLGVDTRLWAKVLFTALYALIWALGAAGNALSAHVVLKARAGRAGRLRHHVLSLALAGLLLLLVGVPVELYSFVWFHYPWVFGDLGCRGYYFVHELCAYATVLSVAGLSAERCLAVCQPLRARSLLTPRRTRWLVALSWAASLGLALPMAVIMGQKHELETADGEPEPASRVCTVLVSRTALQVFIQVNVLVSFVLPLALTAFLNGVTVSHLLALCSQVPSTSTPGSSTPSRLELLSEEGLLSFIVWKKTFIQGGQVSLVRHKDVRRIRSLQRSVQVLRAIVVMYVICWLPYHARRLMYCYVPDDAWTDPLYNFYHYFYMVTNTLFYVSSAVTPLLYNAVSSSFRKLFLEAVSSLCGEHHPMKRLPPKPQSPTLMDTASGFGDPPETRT

Compound	Kd (hNTS2; text, read-out: Kd at hNTS2) [nM]	plasma levels of prostaglandin (6-keto-prostaglandin F1α immunoreactivity) (6-keto-prostaglandin F1α)	hNTS2 Selectivity (hNTS2; Table 2, hNTS2 over hNTS1)	Kd (hNTS2; [5]) [nM]	hNTS2 Selectivity (hNTS2; Table 4)	hNTS1 Selectivity (hNTS1)	Kd (hNTS1; [6]) [nM]	half-life [3] [h]	effect on body temperature [2]	also measured
CC[C@H](C)[C@H](NC(=O)[C@@H](Cc1cccc2ccccc12)NC(=O)[C@@H]1CCCN1C(=O)[C@H](CCCNC(=N)N)NC(=O)[C@@H](N)CCCNC(=N)N)C(=O)N[C@@H](CC(C)C)C(=O)O [NT50, [D-3,1-Nal^11]NT(8-13)]	17.3									behavioral effect [1]: caused behavioral activation; effects on body temperature [1]: little or no effects on body temperature
CN[C@@H](CCCNC(=N)N)C(=O)N[C@@H](CCCCN)C(=O)N1CCC[C@H]1C(=O)N[C@@H](Cc1cccc2[nH]ccc12)C(=O)N[C@H](C(=O)N[C@@H](CC(C)C)C(=O)O)C(C)(C)C [NT69L, [N-methyl-Arg^8,L-Lys^9,L-neo-Trp^11,tert-Leu^12]NT(8-13)] (H-[NMeR]KP[Ala(indol-4-yl)][Tle]L-OH; C-terminus assumed)		markedly elevated	1.5	2.1 ± 0.2	1.5	0.7	3.1 ± 0.4	> 100		change in body temperature (decrease) ([2]; FIG. 5): about 10 °C
CC[C@H](C)[C@H](NC(=O)[C@H](Cc1cccc2[nH]ccc12)NC(=O)[C@@H]1CCCN1C(=O)[C@H](N)CCCCN)C(=O)N[C@@H](CC(C)C)C(=O)O [NT73, [D-Lys^9,L-neo-Trp^11]NT(9-13)] (H-[dK]P[Ala(indol-4-yl)]IL-OH; N-terminus and C-terminus assumed)			0.2	162 ± 3		5.5	30 ± 3	> 100		
CN[C@@H](CCCNC(=N)N)C(=O)N[C@@H](CCCNC(=N)N)C(=O)N1CCC[C@H]1C(=O)N[C@H](Cc1cccc2ccccc12)C(=O)N[C@H](C(=O)N[C@@H](CC(C)C)C(=O)O)C(C)(C)C [NT79, [N-methyl-Arg^8,D-3,1-Nal^11,tert-Leu^12]NT(8-13)] (H-[NMeR]RP[d1Nal][Tle]L-OH; C-terminus assumed)		no effect	82		82				minimal effects	antinociceptive effect in tail flick assay (Tail flick test): demonstrated antinociceptive effects; Kd (hNTS2): 22 nM; selectivity for hNTS2 (hNTS2; text): 82 fold; antinociceptive effect in writhing pain model [4]: robust antinociceptive effect; Kd (hNTS1): 1800 nM; Kd (hNTS1; Kd at hNTS1): ~1800 nM
CC[C@H](C)[C@H](NC(=O)[C@@H](Cc1cccc2ccccc12)NC(=O)[C@@H]1CCCN1C(=O)[C@H](CCCNC(=N)N)NC(=O)[C@H](CCCNC(=N)N)NC)C(=O)N[C@@H](CC(C)C)C(=O)O [NT80, [N-methyl-Arg^8,D-3,1-Nal^11]NT(8-13)]	~30			30					minimal effects	
